Measured values taken from patent publication US20110046079A1, “Use of Proton Pump Inhibitors as Drug Delivery Adjuvants” (priority 2008, published 2011).
Several values for one entry are separate records, joined by “and”; a condition that tells them apart may be missing. Identical values can stand only once. One block for each compound: values may come before it.

Columns and labels:
[1] = system: rat gastric corpus mucosa; experiment: Transepithelial flux of 14C-labeled probes (mannitol, sucrose, polyethylene glycol) before and after PPI; conditions: for Post-Omeorazole transmucosal flux / Pre-Omeorazole transmucosal flux: mean +/- SE, 3 experiments; for Pre-Omeorazole transmucosal flux: before 200 μM omeprazole
Experimental: In each experiment, one adult male Sprague Dawley rat was sacrificed by decapitation. The stomach was removed, flushed, and stripped of its outer serosal membrane, while being frequently moistened with chilled, unbuffered saline. Two pieces of corpus mucosa were mounted in modified Ussing chambers, with exposed tissue surface area of 1.13 cm^2. Chambers were connected to gas-lift reservoirs, with a fluid volume of 17 mL per hemichamber. The mucosal hemichamber was filled with unbuffered saline (with 17 mM glucose) and kept aerated and perfused with 100% O2 at 37° C. […] Water-jacketed reservoirs maintained chamber saline at 37° C.
KRB was adjusted to a pH of 7.3-7.4.
Unbuffered saline was gassed with 100% O2 and was used to bathe the mucosal side of the gastric mucosa.
Approximately 30 minutes after tissues were mounted in Ussing chambers, dibutyrl cyclic AMP (dB-cAMP) (Sigma, St. Louis, Mo.) was added to the serosal sides of both chambers to a concentration of 1 mM in order to stimulate acid output by the tissue.
Three experiments were performed with each PPI, examining gastric permeability to ^14C-mannitol.
Three experiments were performed at each omeprazole concentration.

[2] = system: rat gastric corpus mucosa; experiment: Transepithelial drug flux studies (3H-digoxin, 14C-phenytoin, mucosal to serosal) before and after omeprazole or DMSO; format: in vitro ADME; conditions: 0.1 mM probe
Experimental: Sprague Dawley male rats weighing approximately 400 grams were sacrificed by decapitation and the stomach was quickly removed, cut along the greater curvature, and flushed of luminal contents. The serosal membrane was then stripped from the corpus region and two equal sized pieces of corpus mucosa were mounted in two separate Ussing chambers with exposed tissue areas of 1.13 cm^2. Chambers were connected to 15 mL gas-lift reservoirs filled with un-buffered saline aerated with 100% O2 and bicarbonate-buffered saline aerated with 95% O2/5% CO2 on the mucosal and serosal sides, respectively. Saline temperature was held constant at 37° C. by a jacketed water bath surrounding the reservoirs. 30 minutes at 37° C. was allowed for tissue equilibration. In paired experiments, one tissue served as (vehicle) ‘control’, and the other as omeprazole-treated ‘experimental’.
After 30 minutes of tissue equilibration time in Ussing chambers, dibutyrl cyclic AMP (dBcAMP) (Sigma) was added to a final concentration of 1 mM to the serosal fluid chambers to stimulate acid secretion. […] The addition of the isotope marked the beginning of the flux period. 150 μL or 250 μL samples were taken from the serosal fluid compartment (opposite from which the isotope was added) for liquid scintillation counting (LSC). Samples were initially taken at 30 minute intervals for 90 minutes for the ^14C-phenytoin flux or at 15 minute intervals for 75 minutes for the ^3H-digoxin flux to establish the basal permeability rate (ρmoles/min/cm^2) across the tissue. 200 μM omeprazole (Sigma) (in DMSO) was then added to the mucosal and serosal sides of one chamber and an equivalent amount of DMSO (Sigma) was also added to both sides of the control chamber. Another series of serosal fluid samples were taken for LSC at 15 or 30 minute intervals for the remaining 60 minutes of ^3H-digoxin or ^14C-phenytoin flux experiments, respectfully, to determine flux rate of the radiolabeled drugs after omeprazole addition. In all cases of fluid sampling for liquid scintillation counting, an equal amount of fresh buffered saline was added back to the serosal side to prevent hydrostatic gradients from developing across the tissue. The flux of each isotope (ρmole/min/cm^2) was determined by calculating the linear regression slope of the graph of cpm versus time, and converting cpm to picomoles after determining the specific activity of the drug in the mucosal fluid.
To observe if the omeprazole-induced leak allows for permeation of certain small molecule drugs, ^3H-digoxin was added to the mucosal fluid compartment and saline samples were taken at 15 minute intervals from the serosal fluid compartments for a 135-minute flux period. Omeprazole and/or DMSO were added to their respective tissues 75 minutes after the addition of the isotope. Radioactivity present in the serosal fluid compartment was measured as a function of time before and after the addition of omeprazole or DMSO.

[3] = system: rat gastric corpus mucosa; experiment: Acid secretion (mucosal fluid pH) of dB-cAMP stimulated tissue in Ussing chambers; conditions: ex vivo addition; 200 μM omeprazole, 200 μM lansoprazole, 100 μM esomeprazole
Experimental: Water-jacketed reservoirs maintained chamber saline at 37° C.
In order to confirm stimulation of acid secretion by secretagogue addition and to verify the efficacy of the PPI, mucosal fluid compartment pH was recorded at intervals throughout the experiment with a manual electrode (Denver Instruments, Denver, Colo.). Ag/AgCl voltage and current electrodes were used to measure PD (potential difference) and ISC (short circuit current) approximately every five minutes for the duration of the experiment, as previously described (Hameed et al. (2004) Dig. Dis. Sci., 49:1381-1386), using two single-channel current/voltage clamps (McGrath Research and Technology). Ohm's Law was used to calculate transepithelial electrical resistance across the tissue.
Mucosal and serosal saline pH measurements were taken at approximately five minute intervals using a manual electrode (Denver Instruments) to ensure that the tissue was secreting acid. Mucosal pH readings were also taken before and after the addition of omeprazole to document the action of omeprazole on inhibiting acid secretion. Tissue viability was confirmed at the end of each experiment by tissue exposure to 10 mM amiloride in the mucosal fluid compartment in order to inhibit short circuit current.

[4] = system: healthy controls; experiment: Sucrose permeability test, time course and reversibility of the esomeprazole-induced leak; format: in vivo, human; conditions: for durations with statistically significant elevation of sucrose leak: esomeprazole 40 mg once/day for 1, 2, 3, 5, 7 or 9 days, P<0.05
Experimental: Healthy controls were recruited without regard to gender or ethnicity, from an age range of 18-80. Their exclusion criteria were no prior gastrointestinal surgery and no current gastrointestinal disease. Because of the nature of the permeability test being used, diabetics and those with renal insufficiency were likewise excluded. Those participating did so only after personally signing an informed consent that was approved prior by the Lankenau Hospital Institutional Review Board. […] An 8 hour overnight urine sample was collected in a container with 5 ml of 10% thymol in isopropanol as antimicrobial preservative. A courier service picked up urine containers at the patient's home and delivered them to the research laboratory. Total urine volume and refractive index were measured and recorded. […] This amount of sucrose equates to the amount of sucrose which leaked from the upper GI lumen. The next study was begun to reduce the (disease) variables that may be at play in working with a GERD population and simultaneously assess the time course with which a PPI leak may establish. As described above, a volunteer group of healthy controls without any active GI disease or prior surgeries was recruited. Volunteers were randomly assigned to duration groups of 1, 2, 3, 5, 7 or 9 days. […] As in FIG. 2, a rising bar indicates greater leak in the second test, a falling bar indicates a lower leak at the second test. […] However the average leak of the second test was greater than the first by the second day and then consistently climbed further out through the nine days. […] The figure gives the average leak of the first (pre esomeprazole) test, the second test and the third (4 day post-esomeprazole) test. Although the second test is statistically different from the first or the third (P<0.01), the third test is not statistically different from the first, evidencing the relative rapid reversibility of the leak phenomenon.

[5] = system: first-time-presenting GERD patients; experiment: Sucrose permeability test before and at the end of an 8 week course of esomeprazole (NEXIUM); format: in vivo, human
Experimental: Patients with GERD were recruited from a primary care practice, to which they were presenting for the first time with their disease. […] With the exception of their GERD, these patients met the above criteria at the time of their recruitment, and were recruited in a similar manner. […] An 8 hour overnight urine sample was collected in a container with 5 ml of 10% thymol in isopropanol as antimicrobial preservative. A courier service picked up urine containers at the patient's home and delivered them to the research laboratory. Total urine volume and refractive index were measured and recorded. […] This amount of sucrose equates to the amount of sucrose which leaked from the upper GI lumen. The next study posed the question of whether PPI therapy would improve barrier function in the upper GI tract by allowing for reduction of mucosal inflammation and damage ensuing from esophagitis and gastritis. An early hypothesis was that PPI therapy would improve barrier function in the upper GI tract of first-time-presenting GERD patients, by allowing for reduction of mucosal inflammation and damage ensuing from any esophagitis or gastritis. […] As previously mentioned, this was in contrast to an earlier study (Mullin et al. (2006) Dig. Dis. Sci., 51:2326-36) which utilized GERD patients who had been previously diagnosed and under the care of a gastroenterologist. […] A 4 week follow up check was performed on all patients, and all reported significant symptom improvement with mild if any side effects.

[6] = system: healthy controls; experiment: Sucrose leak test before and after five days of omeprazole or famotidine; format: in vivo, human
Experimental: An 8 hour overnight urine sample was collected in a container with 5 ml of 10% thymol in isopropanol as antimicrobial preservative. A courier service picked up urine containers at the patient's home and delivered them to the research laboratory. Total urine volume and refractive index were measured and recorded. […] This amount of sucrose equates to the amount of sucrose which leaked from the upper GI lumen.
H-2 blockers such as PEPCID® (famotidine) also cause a GI leak. The instant study was first performed with 20 subjects, all healthy controls. Randomly 10 were put on PPIs (20 mg of omeprazole), 10 on H-2 blockers (40 mg of famotidine). These amounts are standard for acid suppression therapy. […] They were given doses of these drugs in the morning for five days. A sucrose leak test was done the night of the fifth and last day.
Therefore, a second H-2 blocker study was performed looking at leak in an n=5 group but doing evening doses of famotidine and maintaining the other aspects of the above study, with the post H-2 blocker leak test performed again the night of the 5th dose, but now only with a 4-6 hours after the 5th and final dose.

[7] = 0.1 mM 14C-labeled probe, after 200 μM omeprazole

Post-Omeorazole transmucosal flux [1, 7]: 24.19 +/− 4.67 ρmoles/min/cm^2
Pre-Omeorazole transmucosal flux ([1]; 0.1 mM 14C-labeled probe): 11.71 +/− 3.39 ρmoles/min/cm^2
SMILES: OC[C@H]1O[C@@](CO)(O[C@H]2O[C@H](CO)[C@@H](O)[C@H](O)[C@H]2O)[C@@H](O)[C@@H]1O [Sucrose]

SMILES: OC[C@@H](O)[C@@H](O)[C@H](O)[C@H](O)CO [[D]-Mannitol]
% Increase in Flux [1, 7]: 68.72% and 68.72 +/− 8.32%
Post-Omeorazole transmucosal flux [1, 7]: 37.81 +/− 1.32 ρmoles/min/cm^2
Pre-Omeorazole transmucosal flux ([1]; 0.1 mM 14C-labeled probe): 22.45 +/− 0.61 ρmoles/min/cm^2
% Increase in Flux After Omeprazole ([2]; 200 μM omeprazole): 68.7% ± 8.4%
Post-Omeprazole Flux Value ([2]; after 200 μM omeprazole, corrected by TLC): 31.6 ± 3.9 ρmole/min/cm^2
Pre-Omeprazole Flux Value ([2]; before 200 μM omeprazole, 3 experiments): 21.2 ± 5.3 ρmole/min/cm^2
% Increase in Flux After DMSO ([2]; vehicle control tissue): 23.0% ± 15.3%
Post-DMSO Flux Value ([2]; vehicle control tissue, corrected by TLC): 27.2 ± 2.4 ρmole/min/cm^2
Pre-DMSO Flux Value ([2]; vehicle control tissue, mean ± SEM, 3 experiments): 22.7 ± 3.3 ρmole/min/cm^2

SMILES: COc1ccc2nc([S@@+]([O-])Cc3ncc(C)c(OC)c3C)[nH]c2c1 [esomeprazole]
effect on acid secretion (rate of mucosal acidification) [3]: inhibited acid secretion
sucrose leak in third test (reversibility) ([4]; 4 days after finishing 5, 7 or 9 day esomeprazole course, n=9): decreases to near baseline
leak in second test greater than first (pre esomeprazole) test, average ([4]; day 9 of esomeprazole 40 mg once/day): ~400 mg
durations with statistically significant elevation of sucrose leak [4]: fifth day
durations with statistically significant elevation of sucrose leak ([4]; listed as NEXIUM®): 5, 7 and 9 day durations
% Increase in Flux of 14C-[D]-mannitol ([1]; 100 μM PPI): 101.62%
% Increase in Flux of 14C-[D]-mannitol ([1]; 100 μM PPI, listed as Esomeprazole): 101.62 +/− 10.04%
average initial sucrose leak ([5]; before esomeprazole, 26 patients, mean, SEM): 72 mg
average initial leak, all patients ([5]; before esomeprazole, all 37 patients): 179 mg
patients whose post-NEXIUM sucrose leak was smaller ([5]; end of 8 week course vs before): 4 of 25
patients whose post-NEXIUM sucrose leak was greater ([5]; end of 8 week course vs before, total sucrose in overnight urine): 21 of 26
patients with increased leak above the 200 mg threshold level ([5]; end of 8 week esomeprazole 40 mg/day): 14 of 21
mean final sucrose leak ([5]; end of 8 week esomeprazole 40 mg/day, 26 patients, mean, SEM): 325 mg
final leak, all patients ([5]; end of 8 week esomeprazole 40 mg/day, all 37 patients): 307 mg

SMILES: NC(N)=Nc1nc(CSCCC(N)=NS(N)(=O)=O)cs1 [famotidine]
pre-med sucrose leak ([6]; baseline before medication, n=10 per group, SEM): 50 mg
pre H-2 blocker leak, second study ([6]; baseline, n=5, SEM): 46 mg
post H-2 blocker leak, second study ([6]; evening doses of famotidine, test 4-6 hours after 5th dose, n=5, P=0.03): 132 mg
post med sucrose leak ([6]; morning doses for five days (20 mg omeprazole or 40 mg famotidine), test night of fifth day, n=10): 110 mg

SMILES: Cc1c(OCC(F)(F)F)ccnc1C[S+]([O-])c1nc2ccccc2[nH]1 (centres unmarked) [lansoprazole, 2-(((3-methyl-4-(2,2,2-trifluoro-ethoxy)-2-pyridinyl)methyl)sulfinyl)-1H benzimidazole]
effect on acid secretion (rate of mucosal acidification) [3]: inhibited acid secretion
% Increase in Flux of 14C-[D]-mannitol ([1]; 200 μM PPI): 83.35%
% Increase in Flux of 14C-[D]-mannitol ([1]; 200 μM PPI, listed as Lansoprazole): 83.35 +/− 20.71%
